Source: paper PMC6013247, “Preclinical characterization of INCB053914, a novel pan-PIM kinase inhibitor, alone and in combination with anticancer agents, in models of hematologic malignancies” (PLoS ONE, 2018)

Columns and labels:
SGK2 = SGK2 (Homo sapiens, UniProt Q9HBY8); test: Kinase selectivity panel; type: biochemical; conditions: [ATP] = 1 mM
ROCK1 = ROCK1 (Homo sapiens, UniProt Q13464); test: Kinase selectivity panel; type: biochemical; conditions: [ATP] = 1 mM
TGFBR1 = TGFBR1 (Homo sapiens, UniProt P36897); test: Kinase selectivity panel; type: biochemical; conditions: [ATP] = 1 mM
TGFBR1, sequence (P36897 34-503, species assumed): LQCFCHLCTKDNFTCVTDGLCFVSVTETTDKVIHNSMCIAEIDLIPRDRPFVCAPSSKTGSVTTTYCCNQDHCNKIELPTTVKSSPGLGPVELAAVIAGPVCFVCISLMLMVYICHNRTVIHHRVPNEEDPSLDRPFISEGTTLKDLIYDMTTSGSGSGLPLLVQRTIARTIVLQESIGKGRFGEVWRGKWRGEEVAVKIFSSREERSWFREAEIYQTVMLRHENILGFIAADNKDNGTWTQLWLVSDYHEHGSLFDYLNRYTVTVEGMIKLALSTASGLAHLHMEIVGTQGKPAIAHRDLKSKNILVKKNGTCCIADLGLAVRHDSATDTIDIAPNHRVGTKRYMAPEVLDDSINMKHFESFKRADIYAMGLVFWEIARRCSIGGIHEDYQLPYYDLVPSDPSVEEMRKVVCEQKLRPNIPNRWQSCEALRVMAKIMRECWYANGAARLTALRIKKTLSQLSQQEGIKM

EPHB4 = EPHB4 (Homo sapiens, UniProt P54760); test: Kinase selectivity panel; type: biochemical; conditions: [ATP] = 1 mM
EPHB4, sequence (P54760 16-987): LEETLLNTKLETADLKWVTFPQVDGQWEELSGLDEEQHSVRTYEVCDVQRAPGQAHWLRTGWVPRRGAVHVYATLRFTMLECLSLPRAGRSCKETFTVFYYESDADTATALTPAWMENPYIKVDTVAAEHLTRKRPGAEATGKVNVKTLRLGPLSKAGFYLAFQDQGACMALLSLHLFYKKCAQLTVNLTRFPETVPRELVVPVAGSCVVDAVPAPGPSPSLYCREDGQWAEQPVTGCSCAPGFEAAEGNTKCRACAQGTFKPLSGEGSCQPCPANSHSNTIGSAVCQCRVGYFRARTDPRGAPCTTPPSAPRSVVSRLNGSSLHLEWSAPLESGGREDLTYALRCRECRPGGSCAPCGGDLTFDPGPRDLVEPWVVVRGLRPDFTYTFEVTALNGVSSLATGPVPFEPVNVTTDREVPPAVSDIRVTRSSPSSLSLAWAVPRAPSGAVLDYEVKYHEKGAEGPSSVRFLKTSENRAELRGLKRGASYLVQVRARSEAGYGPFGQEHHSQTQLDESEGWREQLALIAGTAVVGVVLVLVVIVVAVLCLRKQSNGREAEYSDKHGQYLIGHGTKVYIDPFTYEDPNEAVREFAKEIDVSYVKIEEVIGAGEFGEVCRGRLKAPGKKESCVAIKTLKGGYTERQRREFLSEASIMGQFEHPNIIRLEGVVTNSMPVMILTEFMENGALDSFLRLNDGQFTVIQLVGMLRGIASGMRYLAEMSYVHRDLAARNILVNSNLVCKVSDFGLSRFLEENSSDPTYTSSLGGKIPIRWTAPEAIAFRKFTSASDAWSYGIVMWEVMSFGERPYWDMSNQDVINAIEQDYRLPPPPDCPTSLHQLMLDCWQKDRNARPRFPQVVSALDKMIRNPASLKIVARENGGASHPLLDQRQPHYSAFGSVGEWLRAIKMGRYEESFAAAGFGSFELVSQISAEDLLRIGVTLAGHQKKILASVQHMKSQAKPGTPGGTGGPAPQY

[1] = test system: phosphorylation of BAD in MOLM-16 cells; test: pBAD S112 ELISA in cells; type: cell-based; conditions: Homo sapiens, MOLM16, 2.5 hours, RPMI + 10% FBS, read-out: mean (± SD) IC50, pBAD inhibition
Procedure: The effect of INCB053914 on the level of pBAD was further investigated in KMS-12-BM and MOLM-16 cells, which were suspended in RPMI + 10% fetal bovine serum (FBS) and seeded into 96-well v-bottom polypropylene plates (Greiner, Munroe, North Carolina; 4 × 10^5 cells/well/100 μl) in the presence of 5 μl INCB053914 at a final concentration range of 0.1 nM to 1,000 nM. After 2.5 hours at 37°C and 5% CO2, the cells were lysed in 100 μl of cell extraction buffer (Cell Signaling Technology) containing phenylmethane sulfonyl fluoride, Halt^TM phosphatase, and protease inhibitors (Thermo Fisher Scientific, Waltham, Massachusetts; Calbiochem). The concentration of pBAD protein in the cell lysates was quantified using a Human pBAD S112 ELISA Kit (Cell Signaling Technology).

[2] = test system: pBAD, pSTAT3 and MYC in INA-6 (MM) tumors; test: pBAD, pSTAT3 and MYC levels in INA-6 (MM) tumors; type: in vivo, mouse; conditions: INA-6 (MM) tumors in mice
Procedure: The PI3Kδ inhibitor INCB050465 (10 mg/kg once a day orally) was evaluated in combination with INCB053914 (30 mg/kg once a day orally) in mice bearing Pfeiffer (DLBCL) xenografts, a model sensitive to PI3Kδ inhibition (eight mice/group). Cytarabine was administered via intraperitoneal injection at a standard dose of 20 mg/kg twice a week, in combination with oral INCB053914 at a submaximally efficacious dose of 20 mg/kg twice a day for 12 days in mice bearing human KG-1 AML xenografts, a cytarabine-sensitive model (eight mice/group). The oral JAK1-selective inhibitor itacitinib (60 mg/kg twice a day orally) was assessed in combination with INCB053914 (100 mg/kg twice a day orally) after 8 days of administration to SCID mice bearing INA-6 (MM) xenografts (eight mice/group), a model sensitive to JAK inhibition.

INA-6 cells = test: STAT3(Y705) and PIM kinase substrate phosphorylation in INA-6 cells in culture; type: cell-based; conditions: INA-6 cells treated for 24 hours in culture
Procedure: Fig S1. Effects of INCB053914 on STAT3(Y705) and PIM kinase substrate phosphorylation in INA-6 cells treated for 24 hours in culture.

BRAF = BRAF (Homo sapiens, UniProt P15056); test: Kinase selectivity panel; type: biochemical; conditions: [ATP] = 1 mM
BRAF, sequence (P15056 whole entry): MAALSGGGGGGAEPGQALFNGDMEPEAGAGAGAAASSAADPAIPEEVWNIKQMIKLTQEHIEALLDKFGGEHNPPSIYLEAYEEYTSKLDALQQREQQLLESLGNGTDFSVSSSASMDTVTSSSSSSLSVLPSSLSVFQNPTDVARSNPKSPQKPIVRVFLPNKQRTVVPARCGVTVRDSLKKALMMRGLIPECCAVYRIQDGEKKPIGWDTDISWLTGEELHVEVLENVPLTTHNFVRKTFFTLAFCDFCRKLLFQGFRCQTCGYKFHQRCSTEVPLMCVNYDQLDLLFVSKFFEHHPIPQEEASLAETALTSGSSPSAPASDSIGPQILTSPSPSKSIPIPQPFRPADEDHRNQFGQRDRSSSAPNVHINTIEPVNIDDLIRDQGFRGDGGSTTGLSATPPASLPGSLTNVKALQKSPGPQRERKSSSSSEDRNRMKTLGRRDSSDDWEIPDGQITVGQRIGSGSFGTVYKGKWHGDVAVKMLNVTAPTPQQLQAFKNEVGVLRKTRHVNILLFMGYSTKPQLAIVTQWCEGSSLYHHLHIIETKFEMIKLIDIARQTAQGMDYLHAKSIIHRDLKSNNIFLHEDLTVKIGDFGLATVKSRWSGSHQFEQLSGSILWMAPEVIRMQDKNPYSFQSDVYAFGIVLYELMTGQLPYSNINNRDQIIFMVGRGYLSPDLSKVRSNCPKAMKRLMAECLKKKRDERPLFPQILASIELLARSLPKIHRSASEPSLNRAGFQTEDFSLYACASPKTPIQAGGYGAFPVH

TRKA = TRKA (Homo sapiens, UniProt P04629); test: Kinase selectivity panel; type: biochemical; conditions: [ATP] = 1 mM
TRKA, sequence (P04629 33-796, species assumed): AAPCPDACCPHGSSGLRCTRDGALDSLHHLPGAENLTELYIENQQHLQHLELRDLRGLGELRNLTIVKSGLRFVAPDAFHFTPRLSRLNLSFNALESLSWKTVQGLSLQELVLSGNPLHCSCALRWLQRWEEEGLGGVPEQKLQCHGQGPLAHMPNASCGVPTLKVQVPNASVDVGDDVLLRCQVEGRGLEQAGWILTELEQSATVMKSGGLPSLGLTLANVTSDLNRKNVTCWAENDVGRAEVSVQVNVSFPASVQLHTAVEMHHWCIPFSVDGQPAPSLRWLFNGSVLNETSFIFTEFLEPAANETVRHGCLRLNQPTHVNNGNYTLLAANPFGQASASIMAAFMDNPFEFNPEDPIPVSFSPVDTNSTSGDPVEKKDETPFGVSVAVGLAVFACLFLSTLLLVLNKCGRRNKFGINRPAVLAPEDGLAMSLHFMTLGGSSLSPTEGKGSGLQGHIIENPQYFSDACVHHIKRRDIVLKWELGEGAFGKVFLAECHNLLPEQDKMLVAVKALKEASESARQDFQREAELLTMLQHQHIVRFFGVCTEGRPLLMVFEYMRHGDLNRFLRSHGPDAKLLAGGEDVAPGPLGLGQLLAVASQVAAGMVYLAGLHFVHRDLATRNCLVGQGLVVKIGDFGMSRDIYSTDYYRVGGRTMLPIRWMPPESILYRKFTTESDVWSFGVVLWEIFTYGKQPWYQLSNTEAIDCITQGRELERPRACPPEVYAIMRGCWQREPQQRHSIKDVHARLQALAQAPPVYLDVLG

MSSK1 = MSSK1 (Homo sapiens, UniProt Q9UPE1); test: Kinase selectivity panel; type: biochemical; conditions: [ATP] = 1 mM
MSSK1, sequence (Q9UPE1 whole entry): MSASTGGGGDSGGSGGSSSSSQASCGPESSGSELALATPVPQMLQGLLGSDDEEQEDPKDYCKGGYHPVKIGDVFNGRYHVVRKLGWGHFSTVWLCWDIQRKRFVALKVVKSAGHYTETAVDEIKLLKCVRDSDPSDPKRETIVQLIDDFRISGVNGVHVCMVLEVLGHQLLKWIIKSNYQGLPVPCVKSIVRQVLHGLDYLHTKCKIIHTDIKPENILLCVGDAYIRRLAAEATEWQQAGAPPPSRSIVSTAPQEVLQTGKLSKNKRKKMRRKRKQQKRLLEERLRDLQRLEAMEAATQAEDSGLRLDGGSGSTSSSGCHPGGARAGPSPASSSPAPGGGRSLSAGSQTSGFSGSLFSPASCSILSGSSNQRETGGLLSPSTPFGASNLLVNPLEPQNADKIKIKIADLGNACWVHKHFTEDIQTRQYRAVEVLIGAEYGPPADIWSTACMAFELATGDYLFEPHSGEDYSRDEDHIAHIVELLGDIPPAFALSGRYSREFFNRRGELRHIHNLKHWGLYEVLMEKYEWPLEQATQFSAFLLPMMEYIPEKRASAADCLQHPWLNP

PIM2 = PIM2 (Homo sapiens, UniProt Q9P1W9); test: Kinase selectivity panel; type: biochemical; conditions: [ATP] = 1 mM
PIM2, sequence (Q9P1W9 whole entry): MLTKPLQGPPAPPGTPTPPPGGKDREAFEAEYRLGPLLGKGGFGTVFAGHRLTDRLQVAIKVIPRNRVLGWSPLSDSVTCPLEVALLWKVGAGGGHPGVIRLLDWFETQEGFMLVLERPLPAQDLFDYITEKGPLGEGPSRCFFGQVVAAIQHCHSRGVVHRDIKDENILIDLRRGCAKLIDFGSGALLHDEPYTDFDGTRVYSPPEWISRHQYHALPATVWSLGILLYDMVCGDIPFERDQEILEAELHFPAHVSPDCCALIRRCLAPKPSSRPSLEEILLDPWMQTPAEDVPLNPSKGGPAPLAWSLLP

JNK1 = JNK1 (Homo sapiens, UniProt P45983); test: Kinase selectivity panel; type: biochemical; conditions: [ATP] = 1 mM
[3] = test system: PIM kinase substrates (p70S6K/S6 and 4E-BP1) in MOLM-16, Pfeiffer and KMS-12-PE/BM cell lines; test: Western blot of PIM kinase substrate phosphorylation in cell lines; type: cell-based; conditions: MOLM-16 (AML), Pfeiffer (DLBCL), KMS-12-PE/BM (MM); 0 to 1 μM, 2 hours
Procedure: Inhibition of PIM kinase substrate phosphorylation (BAD, S6, p70S6K, and 4E-BP1) and the upregulation of PIM2 (chosen because of its reduced susceptibility to in vitro kinase inhibition) by INCB053914 was determined by incubating 10^6 MOLM-16 (AML), Pfeiffer (DLBCL), KMS-12-PE (MM), and KMS-12-BM (MM) cells with INCB053914 at concentrations ranging from 0 (phosphate-buffered saline [PBS]) to 1 μM for 2 hours in Roswell Park Memorial Institute (RPMI) medium. Cells were centrifuged at 1,000 rpm for 10 minutes and lysed with 1× lysis buffer (Cell Signaling Technology, Danvers, Massachusetts) supplemented with 1 mM phenylmethane sulfonyl fluoride (Sigma-Aldrich, St Louis, Missouri) and proteinase inhibitor cocktail (CalBiochem, San Diego, California). Cell lysates were stored at –80°C before determining phosphoprotein and PIM2 levels by Western blotting using anti-pBAD (S112), anti-p4E-BP1 (S65), pp70S6K (T389), pS6 (S285/S286), and anti-PIM2 antibodies (Cell Signaling Technology).

PRKAA1 = PRKAA1 (Homo sapiens, UniProt Q13131); test: Kinase selectivity panel; type: biochemical; conditions: [ATP] = 1 mM
AURKA = AURKA (Homo sapiens, UniProt O14965); test: Kinase selectivity panel; type: biochemical; conditions: [ATP] = 1 mM
[4] = test system: PIM2 expression in KG-1a, Pfeiffer and KMS-12-PE cells; test: Western blot of PIM2 expression in cell lines; type: cell-based; conditions: KG-1a (AML)
MAP3K8 = MAP3K8 (Homo sapiens, UniProt P41279); test: Kinase selectivity panel; type: biochemical; conditions: [ATP] = 1 mM
MAP3K8, sequence (P41279 whole entry): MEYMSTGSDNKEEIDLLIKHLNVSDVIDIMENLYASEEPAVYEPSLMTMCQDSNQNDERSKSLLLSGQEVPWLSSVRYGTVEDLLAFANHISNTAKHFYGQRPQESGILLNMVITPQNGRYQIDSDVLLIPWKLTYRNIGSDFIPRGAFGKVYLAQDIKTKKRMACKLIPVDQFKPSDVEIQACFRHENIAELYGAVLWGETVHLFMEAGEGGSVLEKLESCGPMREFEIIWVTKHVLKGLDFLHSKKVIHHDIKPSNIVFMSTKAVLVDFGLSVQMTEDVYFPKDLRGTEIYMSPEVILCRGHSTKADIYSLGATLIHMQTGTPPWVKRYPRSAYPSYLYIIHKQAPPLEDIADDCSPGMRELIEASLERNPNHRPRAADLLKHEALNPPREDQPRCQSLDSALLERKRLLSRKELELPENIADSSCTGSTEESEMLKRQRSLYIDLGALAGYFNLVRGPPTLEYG

KIT = KIT (Homo sapiens, UniProt P10721); test: Kinase selectivity panel; type: biochemical; conditions: [ATP] = 1 mM

SGK2, sequence (Q9HBY8 whole entry, species assumed): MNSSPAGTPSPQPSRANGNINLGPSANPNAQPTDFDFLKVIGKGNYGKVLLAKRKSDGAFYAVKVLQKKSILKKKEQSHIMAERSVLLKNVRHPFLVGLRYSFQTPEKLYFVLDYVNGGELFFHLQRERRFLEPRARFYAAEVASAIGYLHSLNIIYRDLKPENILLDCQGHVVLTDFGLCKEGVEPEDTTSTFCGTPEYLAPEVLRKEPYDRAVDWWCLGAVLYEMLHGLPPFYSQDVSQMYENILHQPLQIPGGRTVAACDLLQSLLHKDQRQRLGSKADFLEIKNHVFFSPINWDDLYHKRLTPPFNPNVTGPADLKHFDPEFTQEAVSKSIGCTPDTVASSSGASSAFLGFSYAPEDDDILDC

C[C@H]1CN(c2c(NC(=O)c3ccc(F)c(-c4c(F)cccc4F)n3)cnc3c2CC[C@H]3O)C[C@@H](N)[C@@H]1O.O=P(O)(O)O [INCB053914, N-((R)-4-((3R,4R,5S)-3-amino-4-hydroxy-5-methylpiperidin-1-yl)-7-hydroxy-6,7-dihydro-5H-cyclopenta[b]pyridin-3-yl)-6-(2,6-difluorophenyl)-5-fluoropicolinamide phosphate]
IC50 (SGK2): > 20 µM
IC50 (ROCK1): > 20 µM
IC50 (TGFBR1): > 20 µM
IC50 (EPHB4): > 20 µM
IC50 [1]: 0.004 µM
MYC levels [2]: decreased MYC levels
level of pBAD [2]: decrease
pSTAT3(Y705) levels (INA-6 cells): negligible effects
IC50 (BRAF): > 20 µM
IC50 (TRKA): > 20 µM
IC50 (MSSK1): > 20 µM
IC50 (PIM2): 0.015 µM
IC50 (JNK1): > 20 µM
phosphorylation of downstream PIM kinase substrates (p70S6K/S6 and 4E-BP1) [3]: inhibited the phosphorylation of downstream PIM kinase substrates (p70S6K/S6 and 4E-BP1) in a dose-dependent manner
IC50 (PRKAA1): > 20 µM
IC50 (AURKA): > 20 µM
PIM2 expression [4]: increased PIM2 expression
IC50 (MAP3K8): > 20 µM
IC50 (KIT): > 20 µM
